Data as given in patent US5998488A, “Ophthalmic composition” (Lion Corporation, priority 1994, dated 1999).

Assays:
[1] = tested on: E. coli, P. aeru, S. aureus, A. nigar, Candida; experiment: Antimicrobial test (preservative effectiveness test, USP), microorganism type not specified; format: cell-based; details: for Enhancement of antimicrobial activity (in words): solutions containing benzalkonium chloride, α-cyclodextrin, and EDTA-2Na, alone or in admixture
Method: Using bacteria Escherichia coli (E. coli), Pseudomonas aeruginosa (P. aeru), and Stapyrococcus aureus (S. aureus) and fungi Aspergillus nigar (A. nigar) and Candida albicans (Candida) as infectious microorganisms, a preservative effectiveness test was carried out according to the Pharmacopoeia of the United States.
++: microorganisms died within 5 days
+: microorganisms died in 6-10 days
-:microorganisms died in 11-15 days or over 15 days
Solutions were prepared in accordance with the formulation shown in Experiment 1 in a conventional manner as used in the preparation of eye drops while the amount of disodium ethylenediaminetetraacetate (EDTA-2Na) blended was in the range of 0.002 to 0.3%. The solutions were subject to the antimicrobial test of Experiment 3 and evaluated for antimicrobial activity according to the same criterion as above.
Solutions of the following formulation were prepared in a conventional manner as used in the preparation of eye drops.
The solutions were subject to the antimicrobial test of Experiment 3 and evaluated for antimicrobial activity according to the same criterion as above.
Solutions of the formulation shown in Table 7 were prepared to a total amount of 1,000 g in a conventional manner as used in the preparation of eye drops. […] The ophthalmic solutions were subject to the same tests as in Experiments 1 and 3. In the test of Experiment 3, the ophthalmic solutions were evaluated for antimicrobial activity according to the same criterion as before.

[2] = Benzalkonium chloride adsorption test (soft contact lenses, lens not given); format: physicochemical; details: α-cyclodextrin replaced by the other cyclodextrin
Method: (§1) The percent inhibition of benzalkonium chloride adsorption to commercially available soft contact lenses was determined by the following test.
(§2) Benzalkonium chloride adsorption test A 30-ml vial was charged with 10 ml of the solution and a soft contact lens was immersed therein. In a constant temperature tank at 25° C., the vial was shaken for 24 hours. After the contact lens was removed from the vial, the concentration of benzalkonium chloride in the solution was quantitatively determined by high performance liquid chromatography. A percent inhibition of adsorption was calculated according to the following formula.
(§3) As a control, the above procedure was repeated except that no contact lens was immersed.
(§4) Inhibition of adsorption (%)=(concentration of benzalkonium chloride in sample solution)/(concentration of benzalkonium chloride in control solution)×100
Solutions of the formulation shown in Table 7 were prepared to a total amount of 1,000 g in a conventional manner as used in the preparation of eye drops. Ophthalmic solutions of Examples 2 to 13 were obtained. The ophthalmic solutions were subject to the same tests as in Experiments 1 and 3. In the test of Experiment 3, the ophthalmic solutions were evaluated for antimicrobial activity according to the same criterion as before.

[3] = Benzalkonium chloride adsorption test (soft contact lens Seequence); format: physicochemical; details: α-cyclodextrin 0%; benzalkonium chloride 0.01%; 25° C., 24 hours
Method: (§5) A test was conducted to examine the inhibition of benzalkonium chloride adsorption to soft contact lenses. Solutions of the following formulation were prepared in a conventional manner as used in the preparation of eye drops.
as §1, §2, §3, §4
(§6) Note that Seequence, Nichicon Soft and Menicon Soft are trademarks of soft contact lenses commercially available from Bausch & Lomb, Nihon Contact K.K., and Menicon K.K., respectively.

[4] = Benzalkonium chloride adsorption test (soft contact lens Nichicon Soft μ); format: physicochemical; details: α-cyclodextrin 0%; benzalkonium chloride 0.01%; 25° C., 24 hours
Method: as §5, §1, §2, §3, §4, §6

[5] = Benzalkonium chloride adsorption test (soft contact lens Menicon Soft 72); format: physicochemical; details: α-cyclodextrin 0%; benzalkonium chloride 0.01%; 25° C., 24 hours
Method: as §5, §1, §2, §3, §4, §6

Q: Which Antimicrobial activity ([1]; boric acid 0%, borax 0.01%, about pH 7.2) does the source give for `O=BOB(O)OB(O)OB=O` [Borax] here?
A: + (microorganisms died in 6-10 days)

Q: And the Antimicrobial activity ([1]; boric acid 0%, borax 0.02%, about pH 7.2)?
A: + (microorganisms died in 6-10 days)

Q: And the Antimicrobial activity ([1]; boric acid 0%, borax 0.04%, about pH 7.2)?
A: + (microorganisms died in 6-10 days)

Q: What about the Antimicrobial activity ([1]; boric acid 0%, borax 0.06%, about pH 7.2) of the same molecule?
A: + (microorganisms died in 6-10 days)

Q: And the Antimicrobial activity ([1]; boric acid 0%, borax 0.08%, about pH 7.2)?
A: + (microorganisms died in 6-10 days)

Q: What about the Antimicrobial activity ([1]; boric acid 0%, borax 0.1%, about pH 7.2) of the same molecule?
A: + (microorganisms died in 6-10 days)

Q: What about the Antimicrobial activity ([1]; boric acid 0%, borax 0.15%, about pH 7.2) of the same molecule?
A: ++ (microorganisms died within 5 days)

Q: What about the “Enhancement of antimicrobial activity (in words)” value [1] of the same molecule?
A: effective for enhancing the antimicrobial activity

Q: What does the source list for `OB(O)O` [Boric acid]?
A: Antimicrobial activity ([1]; boric acid 0.05%, borax 0%, about pH 7.2): + (microorganisms died in 6-10 days); Antimicrobial activity ([1]; boric acid 0.1%, borax 0%, about pH 7.2): ++ (microorganisms died within 5 days); Antimicrobial activity ([1]; boric acid 0.2%, borax 0%, about pH 7.2): ++ (microorganisms died within 5 days); Antimicrobial activity ([1]; boric acid 0.4%, borax 0%, about pH 7.2): ++ (microorganisms died within 5 days); Antimicrobial activity ([1]; boric acid 0.6%, borax 0%, about pH 7.2): ++ (microorganisms died within 5 days); Antimicrobial activity ([1]; boric acid 0.8%, borax 0%, about pH 7.2): ++ (microorganisms died within 5 days); Antimicrobial activity ([1]; boric acid 1.0%, borax 0%, about pH 7.2): ++ (microorganisms died within 5 days); Enhancement of antimicrobial activity (in words) [1]: effective for enhancing the antimicrobial activity

Q: Which results are given for `O=C([O-])CN(CCN(CC(=O)O)CC(=O)O)CC(=O)[O-].[Na+].[Na+]` [EDTA-2Na, disodium ethylenediaminetetraacetate]?
A: Effect on lowering of antimicrobial activity by α-cyclodextrin (in words) ([1]; 0.01 to 1.0% of α-cyclodextrin, remarkable at EDTA-2Na at least 0.006%): prevents a lowering of antimicrobial activity; Antimicrobial activity ([1]; EDTA-2Na 0.002%, α-cyclodextrin 0.01%): + (microorganisms died in 6-10 days); Antimicrobial activity ([1]; EDTA-2Na 0.002%, α-cyclodextrin 0.03%): - (microorganisms died in 11-15 days or over 15 days); Antimicrobial activity ([1]; EDTA-2Na 0.002%, α-cyclodextrin 0.05%): - (microorganisms died in 11-15 days or over 15 days); Antimicrobial activity ([1]; EDTA-2Na 0.002%, α-cyclodextrin 0.1%): - (microorganisms died in 11-15 days or over 15 days); Antimicrobial activity ([1]; EDTA-2Na 0.002%, α-cyclodextrin 0.3%): - (microorganisms died in 11-15 days or over 15 days); Antimicrobial activity ([1]; EDTA-2Na 0.002%, α-cyclodextrin 0.5%): - (microorganisms died in 11-15 days or over 15 days); Antimicrobial activity ([1]; EDTA-2Na 0.002%, α-cyclodextrin 1.0%): - (microorganisms died in 11-15 days or over 15 days); Antimicrobial activity ([1]; EDTA-2Na 0.004%, α-cyclodextrin 0.01%): + (microorganisms died in 6-10 days); Antimicrobial activity ([1]; EDTA-2Na 0.004%, α-cyclodextrin 0.03%): - (microorganisms died in 11-15 days or over 15 days); Antimicrobial activity ([1]; EDTA-2Na 0.004%, α-cyclodextrin 0.05%): - (microorganisms died in 11-15 days or over 15 days); Antimicrobial activity ([1]; EDTA-2Na 0.004%, α-cyclodextrin 0.1%): - (microorganisms died in 11-15 days or over 15 days); Antimicrobial activity ([1]; EDTA-2Na 0.004%, α-cyclodextrin 0.3%): - (microorganisms died in 11-15 days or over 15 days); Antimicrobial activity ([1]; EDTA-2Na 0.004%, α-cyclodextrin 0.5%): - (microorganisms died in 11-15 days or over 15 days); Antimicrobial activity ([1]; EDTA-2Na 0.004%, α-cyclodextrin 1.0%): - (microorganisms died in 11-15 days or over 15 days); Antimicrobial activity ([1]; EDTA-2Na 0.006%, α-cyclodextrin 0.01%): + (microorganisms died in 6-10 days); Antimicrobial activity ([1]; EDTA-2Na 0.006%, α-cyclodextrin 0.03%): + (microorganisms died in 6-10 days); Antimicrobial activity ([1]; EDTA-2Na 0.006%, α-cyclodextrin 0.05%): + (microorganisms died in 6-10 days); Antimicrobial activity ([1]; EDTA-2Na 0.006%, α-cyclodextrin 0.1%): + (microorganisms died in 6-10 days); Antimicrobial activity ([1]; EDTA-2Na 0.006%, α-cyclodextrin 0.3%): + (microorganisms died in 6-10 days); Antimicrobial activity ([1]; EDTA-2Na 0.006%, α-cyclodextrin 0.5%): + (microorganisms died in 6-10 days); Antimicrobial activity ([1]; EDTA-2Na 0.006%, α-cyclodextrin 1.0%): + (microorganisms died in 6-10 days); Antimicrobial activity ([1]; EDTA-2Na 0.01%, α-cyclodextrin 0.01%): + (microorganisms died in 6-10 days); Antimicrobial activity ([1]; EDTA-2Na 0.01%, α-cyclodextrin 0.03%): + (microorganisms died in 6-10 days); Antimicrobial activity ([1]; EDTA-2Na 0.01%, α-cyclodextrin 0.05%): + (microorganisms died in 6-10 days); Antimicrobial activity ([1]; EDTA-2Na 0.01%, α-cyclodextrin 0.1%): + (microorganisms died in 6-10 days); Antimicrobial activity ([1]; EDTA-2Na 0.01%, α-cyclodextrin 0.3%): + (microorganisms died in 6-10 days); Antimicrobial activity ([1]; EDTA-2Na 0.01%, α-cyclodextrin 0.5%): + (microorganisms died in 6-10 days); Antimicrobial activity ([1]; EDTA-2Na 0.01%, α-cyclodextrin 1.0%): + (microorganisms died in 6-10 days); Antimicrobial activity ([1]; EDTA-2Na 0.05%, α-cyclodextrin 0.01%): + (microorganisms died in 6-10 days); Antimicrobial activity ([1]; EDTA-2Na 0.05%, α-cyclodextrin 0.03%): + (microorganisms died in 6-10 days); Antimicrobial activity ([1]; EDTA-2Na 0.05%, α-cyclodextrin 0.05%): + (microorganisms died in 6-10 days); Antimicrobial activity ([1]; EDTA-2Na 0.05%, α-cyclodextrin 0.1%): + (microorganisms died in 6-10 days); Antimicrobial activity ([1]; EDTA-2Na 0.05%, α-cyclodextrin 0.3%): + (microorganisms died in 6-10 days); Antimicrobial activity ([1]; EDTA-2Na 0.05%, α-cyclodextrin 0.5%): + (microorganisms died in 6-10 days); Antimicrobial activity ([1]; EDTA-2Na 0.05%, α-cyclodextrin 1.0%): + (microorganisms died in 6-10 days); Antimicrobial activity ([1]; EDTA-2Na 0.1%, α-cyclodextrin 0.01%): + (microorganisms died in 6-10 days); Antimicrobial activity ([1]; EDTA-2Na 0.1%, α-cyclodextrin 0.03%): + (microorganisms died in 6-10 days); Antimicrobial activity ([1]; EDTA-2Na 0.1%, α-cyclodextrin 0.05%): + (microorganisms died in 6-10 days); Antimicrobial activity ([1]; EDTA-2Na 0.1%, α-cyclodextrin 0.1%): + (microorganisms died in 6-10 days); Antimicrobial activity ([1]; EDTA-2Na 0.1%, α-cyclodextrin 0.3%): + (microorganisms died in 6-10 days); Antimicrobial activity ([1]; EDTA-2Na 0.1%, α-cyclodextrin 0.5%): + (microorganisms died in 6-10 days); Antimicrobial activity ([1]; EDTA-2Na 0.1%, α-cyclodextrin 1.0%): + (microorganisms died in 6-10 days); Antimicrobial activity ([1]; EDTA-2Na 0.3%, α-cyclodextrin 0.01%): + (microorganisms died in 6-10 days); Antimicrobial activity ([1]; EDTA-2Na 0.3%, α-cyclodextrin 0.03%): + (microorganisms died in 6-10 days); Antimicrobial activity ([1]; EDTA-2Na 0.3%, α-cyclodextrin 0.05%): + (microorganisms died in 6-10 days); Antimicrobial activity ([1]; EDTA-2Na 0.3%, α-cyclodextrin 0.1%): + (microorganisms died in 6-10 days); Antimicrobial activity ([1]; EDTA-2Na 0.3%, α-cyclodextrin 0.3%): + (microorganisms died in 6-10 days); Antimicrobial activity ([1]; EDTA-2Na 0.3%, α-cyclodextrin 0.5%): + (microorganisms died in 6-10 days); Antimicrobial activity ([1]; EDTA-2Na 0.3%, α-cyclodextrin 1.0%): + (microorganisms died in 6-10 days)

Q: For `OC[C@H]1O[C@@H]2O[C@H]3[C@H](O)[C@@H](O)[C@@H](O[C@H]4[C@H](O)[C@@H](O)[C@@H](O[C@H]5[C@H](O)[C@@H](O)[C@@H](O[C@H]6[C@H](O)[C@@H](O)[C@@H](O[C@H]7[C@H](O)[C@@H](O)[C@@H](O[C@H]8[C@H](O)[C@@H](O)[C@@H](O[C@H]1[C@H](O)[C@H]2O)O[C@@H]8CO)O[C@@H]7CO)O[C@@H]6CO)O[C@@H]5CO)O[C@@H]4CO)O[C@@H]3CO` [β-cyclodextrin], which “Inhibition of adsorption, cyclodextrin in place of α-cyclodextrin (in words)” value [2] is on record?
A: Approximately equivalent results

Q: For “benzalkonium chloride [reference compound]”, which Antimicrobial activity ([1]; boric acid 0%, borax 0%, EDTA-2Na 0.006%, α-cyclodextrin 0.03%, about pH 7.2) is on record?
A: + (microorganisms died in 6-10 days)

Q: What about the Inhibition of adsorption [3] of the same molecule?
A: 65%

Q: What about the Inhibition of adsorption [4] of the same molecule?
A: 60%

Q: And the Inhibition of adsorption [5]?
A: 65%
